According to patent US20090318396A1, “CORTICOSTEROID LINKED BETA-AGONIST COMPOUNDS FOR USE IN THERAPY” (priority 2008, published 2009):

Tests used:
[1] = tested on: carbachol-induced bronchoconstriction; test: Carbachol-induced bronchoconstriction in sheep; format: in vivo; conditions: Example 52 4.7 mg, Salmeterol 2.5 mg, mean ± s.e.m, n=4
Description: Bronchoconstriction was evaluated as a function of increased pulmonary resistance following carbachol challenge. […] Test article was administered either by a pre-dosing or duration of action protocol. In the pre-dosing regimen, animals were dosed once daily for four days, with the last dose administered 1 hr before carbachol challenge. In the duration of action regimen, animals were dosed once daily for four days, with the last dose administered 24 hours before carbachol challenge. Test article and carbachol were administered by nebulized aerosol to intubated sheep.

[2] = tested on: ovalbumin-induced lung inflammation; test: Mouse ovalbumin model of lung inflammation; format: in vivo, Mice (Balb/c); conditions: mouse OVA
Description: Mice (Balb/c) were immunized by intraperitoneal injection of ovalbumin (10 μg OVA suspended in 2 mg aluminum hydroxide) on day 0 and 7. One group was sensitized and treated with vehicle (NSV). One group was immunized with sterile water only and treated with vehicle, e.g. to serve as a nonsensitized (negative) control (Vehicle). […] On days 14 and 15, the animals were exposed to OVA by inhalation (3 h; 5 mg/m^3). Forty eight hours following the last OVA challenge (day 17) mice were sacrificed. Bronchoalveolar lavage (BAL) was taken from each animal to collect cells and fluid. Cell numbers and differentials were calculated from BAL.

[3] = tested on: LPS-induced airway inflammation; test: LPS-induced airway inflammation in rats; format: in vivo, Male Fischer 344 rats; conditions: for TNFα / Neutrophils: rat BAL, mean ± s.e.m.
Description: Example 52 was evaluated in an LPS-induced airway inflammation model in rats. Male Fischer 344 rats (n 8/group) were treated with either vehicle or test article by intratracheal instillation in […] volume 1 hour prior to LPS challenge. Animals were then exposed to LPS by nose-only inhalation exposure for 10 minutes at 5 mg/m^3 resulting in an estimated 5 μg lung deposition. Animals were sacrificed 4 hours after LPS exposure. Lungs were lavaged for bronchoalveolar lavage cell differentials and cytokine analysis by Luminex multiplex immunoassay.

[4] = tested on: ragweed-induced bronchoconstriction; test: Ragweed-induced bronchoconstriction in dogs; format: in vivo, beagle dogs; conditions: mean ± s.e.m.
Description: The compound of Example 52 was assesed for bronchodilator activity in a ragweed-induced bronchoconstriction model in beagle dogs. Dogs were mechanically ventilated during each experiment. Airflow and tidal volume were measured using a differential pressure transducer located in front of the endotracheal tube. An esophageal balloon catheter placed in the esophagus was used to determine transpulmonary pressure. Pulmonary resistance and dynamic lung compliance were calculated from the simultaneous measurement of transpulmonary pressure and respiratory flow. The canine exposure system was designed to expose an anesthetized animal via an intubation tube. Dogs were administered vehicle or test article by inhalation 30 minutes before ragweed antigen exposure (n=4). Dogs were challenged with ragweed antigen (ragweed short, Ambrosia artemisifolia, Greer, Lenoir, N.C.) by inhalation (5 breaths). Immediately following ragweed challenge, changes in pulmonary resistance and compliance were measured for up to 30 minutes.

[5] = tested on: Ascaris suum antigen-induced bronchoconstriction and airway hyperreactivity; test: Ascaris suum-induced pulmonary responses in sheep; format: in vivo
Description: One breath unit is defined as one breath of a 1% w/v carbachol solution. Test article was administered either by a pre-dosing or duration of action protocol. In the pre-dosing regimen, animals were dosed once daily for four days, with the last dose administered 1 hr before antigen. In the duration of action regimen, animals were dosed once daily for four days, with the last dose administered 24 hours before antigen. Test article, Ascaris antigen, and carbachol were administered by nebulized aerosol to intubated sheep.

[6] = 3.0 mg/kg IT, 1x/day day 14 and 15

SMILES: CC[N+](CC)(CC(=O)OCC(=O)[C@@]12O[C@H](C3CCCCC3)O[C@@H]1C[C@H]1[C@@H]3CCC4=CC(=O)C=C[C@]4(C)[C@H]3[C@@H](O)C[C@@]12C)Cc1cc(C(O)CNCCCCCCOCCCCc2ccccc2)ccc1OP(=O)(O)O.[Cl-] (stereo partly drawn) [Example 52, [5-[1-hydroxy-2-[6-(4-phenylbutoxy)hexylamino]ethyl]-2-phosphonooxybenzyl]-(diethyl)-[[11β,16α]-[[15,16-((R)-cyclohexylmethylene)bis(oxy)]-11-hydroxypregna-1,4-diene-3,20-dion-21-yl]carbonylmethyl]ammonium chloride]
- Lung Resistance (% Increase) at 2% Carbachol ([1]; Duration of action regimen (last dose 24 hours before carbachol), Ciclesonide 2.2 mg + Salmeterol Xinafoate 2.5 mg): 450 ± 36 % Increase
- Lung Resistance (% Increase) at 2% Carbachol ([1]; Predosing regimen (last dose 1 hr before carbachol)): 335 ± 38 % Increase
- Eosinophils in BAL, Mean ([2]; 0.6 mg/kg IT): 367580 mL⁻¹
- Neutrophils in BAL, Mean ([2]; 0.6 mg/kg IT): 7270 mL⁻¹
- Eosinophils in BAL, Mean ([2]; 1.0 mg/kg IT): 163320 mL⁻¹
- Neutrophils in BAL, Mean ([2]; 1.0 mg/kg IT): 5340 mL⁻¹
- Eosinophils in BAL, Mean [2, 6]: 57420 mL⁻¹
- Neutrophils in BAL, Mean [2, 6]: 10370 mL⁻¹
- TNFα ([3]; 0.6 mg/kg intratracheal): 293.6 ± 40.6 pg/mL
- TNFα ([3]; 1 mg/kg intratracheal): 361.7 ± 56.6 pg/mL
- Neutrophils ([3]; 3 mg/kg intratracheal, 1 hour prior to LPS): 13.5 ± 0.92 × 10^4/ml
- TNFα ([3]; 3 mg/kg intratracheal): 307.0 ± 60.0 pg/mL
- Neutrophils ([3]; 6 mg/kg intratracheal): 6.4 ± 0.41 × 10^4/ml
- Inhibition of LPS-induced airway inflammation measured as neutrophil influx and TNFα production ([3]; at doses tested, versus vehicle control): significantly inhibit
- Pulmonary Resistance (% of Baseline) ([4]; 6 μg/kg by inhalation): 266.1 ± 19.6 % of Baseline
- Pulmonary Resistance (% of Baseline) ([4]; 20 μg/kg by inhalation): 181.2 ± 11.5 % of Baseline
- Bronchoconstriction, Lung Resistance (% Increase) ([5]; Duration of action regimen (last dose 24 hours before antigen), Post-Ascaris, Example 52 4.7 mg, ciclesonide 2.2 mg, salmeterol xinafoate 2.5 mg, n=4): 226 % Increase
- Bronchoconstriction, Lung Resistance (% Increase) ([5]; Duration of action regimen, 1 hour, n=4): 95 % Increase
- Bronchoconstriction, Lung Resistance (% Increase) ([5]; Duration of action regimen, 2 hours, n=4): 47 % Increase
- Bronchoconstriction, Lung Resistance (% Increase) ([5]; Duration of action regimen, 3 hours, n=4): 17 % Increase
- Bronchoconstriction, Lung Resistance (% Increase) ([5]; Duration of action regimen, 4 hours, n=4): 14 % Increase
- Bronchoconstriction, Lung Resistance (% Increase) ([5]; Duration of action regimen, 5 hours, n=4): 25 % Increase
- Bronchoconstriction, Lung Resistance (% Increase) ([5]; Duration of action regimen, 6 hours, n=4): 31 % Increase
- Bronchoconstriction, Lung Resistance (% Increase) ([5]; Duration of action regimen, 6.5 hours, n=4): 26 % Increase
- Bronchoconstriction, Lung Resistance (% Increase) ([5]; Duration of action regimen, 7 hours, n=4): 26 % Increase
- Bronchoconstriction, Lung Resistance (% Increase) ([5]; Duration of action regimen, 7.5 hours, n=4): 20 % Increase
- Bronchoconstriction, Lung Resistance (% Increase) ([5]; Duration of action regimen, 8 hours, n=4): 22 % Increase
- Hyperreactivity PC400 ([5]; Duration of action regimen, Baseline, Example 52 4.7 mg, ciclesonide 2.2 mg, salmeterol xinafoate 2.5 mg, n=4): 27.8 carbachol breath units
- Hyperreactivity PC400 ([5]; Duration of action regimen, Post-Antigen, n=4): 28 carbachol breath units
- Bronchoconstriction, Lung Resistance (% Increase) ([5]; Predosing regimen (last dose 1 hr before antigen), Post-Ascaris, Example 52 4.7 mg, ciclesonide 2.2 mg, n=2): 220 % Increase
- Bronchoconstriction, Lung Resistance (% Increase) ([5]; Predosing regimen, 1 hour, n=2): 118 % Increase
- Bronchoconstriction, Lung Resistance (% Increase) ([5]; Predosing regimen, 2 hours, n=2): 69 % Increase
- Bronchoconstriction, Lung Resistance (% Increase) ([5]; Predosing regimen, 3 hours, n=2): 34 % Increase
- Bronchoconstriction, Lung Resistance (% Increase) ([5]; Predosing regimen, 4 hours, n=2): 9 % Increase
- Bronchoconstriction, Lung Resistance (% Increase) ([5]; Predosing regimen, 5 hours, n=2): 24 % Increase
- Bronchoconstriction, Lung Resistance (% Increase) ([5]; Predosing regimen, 6 hours, n=2): 34 % Increase
- Bronchoconstriction, Lung Resistance (% Increase) ([5]; Predosing regimen, 6.5 hours, n=2): 19 % Increase
- Bronchoconstriction, Lung Resistance (% Increase) ([5]; Predosing regimen, 7 hours, n=2): 23 % Increase
- Bronchoconstriction, Lung Resistance (% Increase) ([5]; Predosing regimen, 7.5 hours, n=2): 28 % Increase
- Bronchoconstriction, Lung Resistance (% Increase) ([5]; Predosing regimen, 8 hours, n=2): 14 % Increase
- Hyperreactivity PC400 ([5]; Predosing regimen, Baseline, Example 52 4.7 mg, ciclesonide 2.2 mg, n=2): 27.5 carbachol breath units
- Hyperreactivity PC400 ([5]; Predosing regimen, Post-Antigen (24 hours after challenge), n=2): 26.0 carbachol breath units
- Effect on early phase bronchoconstriction ([5]; duration of action regimen): reduction
- Effect on late phase bronchoconstriction and development of airway hyperreactivity ([5]; duration of action regimen): complete inhibition
